In patent US4521538A (Medosan Industrie Biochimiche Riunite S.p.A., priority 1982, dated 1985):
Like-named read-outs stand apart in the source and are kept apart here.

Tests used:
[1] = tested on: healthy animals; test: General observation of toxic effects in animals at the doses used
Excerpt: (§1) The composition that had been administered via the oral and/or parenteral route, was in suspension of 0.5% carboxymethylcellulose in neutral pH physiological saline solution.

[2] = in vivo; details: rat
[3] = assay type: in vivo, male Wistar rats; details: for % incidence / 10 / gastric damage index / mean No. of lesions / mean severity: four days; for mean severity: scale 0 (no lesion) to 5 (perforations)
Experimental: Male Wistar rats weighing 180 g were randomized into groups of 10. Three doses of each compound were administered. One group received the vehicle alone (10 ml/kg b.w.). Each dose was given orally for four days consecutively and the rats were sacrificed on the fifth day for necropsy. The ulcerogenic effect was evaluated by the following scale:
(1) each haemorrhagic point at least 1 mm in diameter was scored as 1 lesion,
(2) haemorrhagic points less than 1 mm in diameter were scored in the following manner:
(c) 20 to 29=three lesions
(2) gastric mucosal irritation without haemorrhage: 1
(3) haemorrhagic points less than 1 mm in diameter: 2
(4) haemorrhagic points between 1 and 3 mm in diameter: 3
(5) haemorrhagic points larger than 3 mm in diameter: 4
By means of this scale it was possible to obtain the gastric damage index: [formula]

[4] = Antitussive activity (method of Y. Kase); assay type: in vivo, albino male Guinea-pigs
Experimental: The antitussive effect on albino male Guinea-pigs weighing 300 g was evaluated using the method described by Y. Kase (Selected Pharmacological Testing Methods, p. 363, Marcel Dekker Inc., New York, 1968).

[5] = Mucolytic activity in vitro, consistency of human expectoration
Experimental: The experiment was carried out "in vitro" according to the method of R. S. Hirsch (Bull. […] Table IV lists the percentage decrease of the expectoration consistency provoked by the compound of this invention in comparison with dithiothreitol and acetylcysteine which are known mucolytic agents.

[6] = Solubility; assay type: physicochemical
[7] = Antiinflammatory activity, carrageenin-induced oedema test; assay type: in vivo, rats
Experimental: This effect was evaluated by means of an experimental model reproducing acute inflammation in rats: for this purpose the carrageenin-induced oedema test was employed following the method described by C. A. Winter (J. Pharmac. Exp. […] Wong, J. F. Gardocki and T. P. Pruss, J. Pharmac. Exp. Ther. 185 (1): 127, 1973). Table I lists the tested compounds, the concentration thereof, routes of administration and relative percentage oedema inhibitions; the data are commented upon at the end of the Tables.

[8] = Analgesic activity, phenylquinone-induced writhing test; assay type: in vivo
Experimental: The inhibiting effect on the abdominal contractions induced by phenyl-p-quinone was calculated by the following formula: [formula]
Table II lists the doses, routes of administration and their efficacy expressed as percentage of protection.

[9] = Antipyretic activity, yeast-induced hyperthermia; assay type: in vivo, albino male Wistar rats
Excerpt: as §1

[10] = in vivo; details: mouse

COc1ccccc1OC(=O)Cc1ccc(C(=O)c2ccc(C)cc2)n1C [1-methyl-5-p-toluoylpyrrole-2-acetic acid guaiacyl ester]
death ([1]; healthy animals, doses and routes used in the experiments, long- or short-term treatments): did not provoke death | apparent signs of toxic effects ([1]; in vivo): nor apparent signs of toxic effects | significant toxic effects ([1]; in vivo): did not provoke significant toxic effects | therapeutical index ([1]; in vivo): high therapeutical index | LD50 ([2]; ip): 1180 mg/kg | LD50 ([2]; po): > 1500 mg/kg | % incidence / 10 ([3]; 50 mg/kg orally): 7 | gastric damage index ([3]; 50 mg/kg orally): 9 | mean No. of lesions ([3]; 50 mg/kg orally): 1 | mean severity ([3]; 50 mg/kg orally): 1 | % incidence / 10 ([3]; 100 mg/kg orally): 8 | gastric damage index ([3]; 100 mg/kg orally): 11 | mean No. of lesions ([3]; 100 mg/kg orally): 1 | mean severity ([3]; 100 mg/kg orally): 2 | % incidence / 10 ([3]; 200 mg/kg orally): 8 | gastric damage index ([3]; 200 mg/kg orally): 12 | mean No. of lesions ([3]; 200 mg/kg orally): 2 | mean severity ([3]; 200 mg/kg orally): 2 | ulcerogenic effect in words ([3]; number of gastric lesions and their severity (Table VI)): moderate | gastrointestinal tolerability ([3]; rat, in vivo): perfectly tolerated by the gastrointestinal tract | % inhibition, amplitude of coughs ([4]; 50 mg/kg i.p.): 18% | % inhibition, frequency of coughs ([4]; 50 mg/kg i.p.): 26% | % inhibition, amplitude of coughs ([4]; 50 mg/kg per os): 16% | % inhibition, frequency of coughs ([4]; 50 mg/kg per os): 22% | % inhibition, amplitude of coughs ([4]; 75 mg/kg i.p.): 25% | % inhibition, frequency of coughs ([4]; 75 mg/kg i.p.): 50% | % inhibition, amplitude of coughs ([4]; 75 mg/kg per os): 19% | % inhibition, frequency of coughs ([4]; 75 mg/kg per os): 45% | % inhibition, amplitude of coughs ([4]; 100 mg/kg i.p.): 40% | % inhibition, frequency of coughs ([4]; 100 mg/kg i.p.): 55% | % inhibition, amplitude of coughs ([4]; 100 mg/kg per os): 38% | % inhibition, frequency of coughs ([4]; 100 mg/kg per os): 56% | antitussive activity in words ([4]; in vivo tests): good mucolytic and antitussive activity | % decrease of expectoration consistency ([5]; 1.0 M (9%), 12 experiments): 52% | mucolytic activity in words ([5]; described as in vivo tests): good mucolytic and antitussive activity | Solubility [6]: soluble in the usual organic solvents | Oedema % inhibition ([7]; 25 mg/kg i.p., 2 h): 33.5% | Oedema % inhibition ([7]; 25 mg/kg i.p., 4 h): 30.0% | Oedema % inhibition ([7]; 25 mg/kg i.p., 6 h): 25.0% | Oedema % inhibition ([7]; 25 mg/kg i.p., 24 h): 7.0% | Oedema % inhibition ([7]; 25 mg/kg per os, 2 h): 27.0% | Oedema % inhibition ([7]; 25 mg/kg per os, 4 h): 29.0% | Oedema % inhibition ([7]; 25 mg/kg per os, 6 h): 28.0% | Oedema % inhibition ([7]; 25 mg/kg per os, 24 h): 3.2% | Oedema % inhibition ([7]; 50 mg/kg i.p., 2 h): 55.0% | Oedema % inhibition ([7]; 50 mg/kg i.p., 4 h): 51.6% | Oedema % inhibition ([7]; 50 mg/kg i.p., 6 h): 49.0% | Oedema % inhibition ([7]; 50 mg/kg i.p., 24 h): 9.2% | Oedema % inhibition ([7]; 50 mg/kg per os, 2 h): 49.0% | Oedema % inhibition ([7]; 50 mg/kg per os, 4 h): 53.0% | Oedema % inhibition ([7]; 50 mg/kg per os, 6 h): 51.0% | Oedema % inhibition ([7]; 50 mg/kg per os, 24 h): 5.3% | Oedema % inhibition ([7]; 100 mg/kg i.p., 2 h): 80.0% | Oedema % inhibition ([7]; 100 mg/kg i.p., 4 h): 78.0% | Oedema % inhibition ([7]; 100 mg/kg i.p., 6 h): 70.0% | Oedema % inhibition ([7]; 100 mg/kg i.p., 24 h): 9.5% | Oedema % inhibition ([7]; 100 mg/kg per os, 2 h): 71.6% | Oedema % inhibition ([7]; 100 mg/kg per os, 4 h): 77.8% | Oedema % inhibition ([7]; 100 mg/kg per os, 6 h): 77.0% | Oedema % inhibition ([7]; 100 mg/kg per os, 24 h): 7.2% | action against acute inflammation in words ([7]; oral and/or parenteral): inhibiting action against acute inflammation | % protection ([8]; 5 mg/kg i.p.): 30.0% | % protection ([8]; 5 mg/kg per os): 30.0% | % protection ([8]; 10 mg/kg i.p.): 62.5% | % protection ([8]; 10 mg/kg per os): 58.6% | % protection ([8]; 20 mg/kg i.p.): 78.0% | % protection ([8]; 20 mg/kg per os): 79.4% | analgesic action in words ([8]; oral and/or parenteral): marked analgesic action | % temperature decrease ([9]; 50 mg/kg i.p., 1 h): 18.0% | % temperature decrease ([9]; 50 mg/kg i.p., 2 h): 26.0% | % temperature decrease ([9]; 50 mg/kg i.p., 3 h): 39.0% | % temperature decrease ([9]; 50 mg/kg per os, 1 h): 16.0% | % temperature decrease ([9]; 50 mg/kg per os, 2 h): 20.0% | % temperature decrease ([9]; 50 mg/kg per os, 3 h): 33.0% | % temperature decrease ([9]; 75 mg/kg i.p., 1 h): 30.0% | % temperature decrease ([9]; 75 mg/kg i.p., 2 h): 35.0% | % temperature decrease ([9]; 75 mg/kg i.p., 3 h): 56.0% | % temperature decrease ([9]; 75 mg/kg per os, 1 h): 18.0% | % temperature decrease ([9]; 75 mg/kg per os, 2 h): 27.0% | % temperature decrease ([9]; 75 mg/kg per os, 3 h): 49.0% | % temperature decrease ([9]; 100 mg/kg i.p., 1 h): 42.0% | % temperature decrease ([9]; 100 mg/kg i.p., 2 h): 49.0% | % temperature decrease ([9]; 100 mg/kg i.p., 3 h): 58.0% | % temperature decrease ([9]; 100 mg/kg per os, 1 h): 29.0% | % temperature decrease ([9]; 100 mg/kg per os, 2 h): 35.0% | % temperature decrease ([9]; 100 mg/kg per os, 3 h): 50.0% | antithermic activity in words ([9]; oral and/or parenteral): considerable antithermic activity | LD50 ([10]; ip): 1200 mg/kg | LD50 ([10]; po): > 1500 mg/kg
